Experimental data published in ChEMBL document CHEMBL5724914, “Linking interpersonal differences in gut microbiota composition and drug biotransformation activity” (2024).

Tests used:
[1] = human gut metagenome, 24 h, 2 µM
[2] = (§1) The drug is tested on Z-011 corresponding to mouse gut metagenome with ENA study accession number: PRJEB37062 and ENA sample accession number: ERS12561811 for biotransformation under anaerobic condition. The drug concentrations were measured over 9 timepoints collected between 0 and 24 hours of incubation by liquid-chromatography-coupled mass spectrometry (LC–MS); details: 2 µM
[3] = as §1, with “WLS-077” for “Z-011”, “human” for “mouse”, “ERS12561750” for “ERS12561811”; details: 2 µM
[4] = as §1, with “Z-022” for “Z-011”, “ERS12561821” for “ERS12561811”; details: 2 µM
[5] = human gut metagenome, 24 h, 2 µM; remark: listed apart in the source
[6] = human gut metagenome, 24 h, 2 µM; remark: listed apart in the source
[7] = as §1, with “Z-007” for “Z-011”, “rat” for “mouse”, “ERS12561807” for “ERS12561811”; details: 2 µM
[8] = human gut metagenome, 24 h, 2 µM; remark: listed apart in the source
[9] = human gut metagenome, 24 h, 2 µM; remark: listed apart in the source
[10] = as §1, with “Z-013” for “Z-011”, “rabbit” for “mouse”, “ERS12561813” for “ERS12561811”; details: 2 µM
[11] = human gut metagenome, 24 h, 2 µM; remark: listed apart in the source
[12] = human gut metagenome, 24 h, 2 µM; remark: listed apart in the source
[13] = as §1, with “Z-016” for “Z-011”, “ERS12561815” for “ERS12561811”; details: 2 µM
[14] = as §1, with “Z-001” for “Z-011”, “ERS12561801” for “ERS12561811”; details: 2 µM
[15] = as §1, with “Z-024” for “Z-011”, “pig” for “mouse”, “ERS12561823” for “ERS12561811”; details: 2 µM
[16] = as §1, with “Z-014” for “Z-011”, “rat” for “mouse”, “ERS12561814” for “ERS12561811”; details: 2 µM
[17] = human gut metagenome, 24 h, 2 µM; remark: listed apart in the source
[18] = human gut metagenome, 24 h, 2 µM; remark: listed apart in the source
[19] = as §1, with “Z-019” for “Z-011”, “rat” for “mouse”, “ERS12561818” for “ERS12561811”; details: 2 µM
[20] = as §1, with “WLS-052” for “Z-011”, “human” for “mouse”, “ERS12561747” for “ERS12561811”; details: 2 µM
Also: call rule not given here.

| Compound | Bacterial Biotransformation [1] | Bacterial Biotransformation [2] | Bacterial Biotransformation [3] | Bacterial Biotransformation [4] | Bacterial Biotransformation [5] | Bacterial Biotransformation [6] | Bacterial Biotransformation [7] | Bacterial Biotransformation [8] | Bacterial Biotransformation [9] | Bacterial Biotransformation [10] | Bacterial Biotransformation [11] | Bacterial Biotransformation [12] | Bacterial Biotransformation [13] | Bacterial Biotransformation [14] | Bacterial Biotransformation [15] | Bacterial Biotransformation [16] | Bacterial Biotransformation [17] | Bacterial Biotransformation [18] | Bacterial Biotransformation [19] | Bacterial Biotransformation [20] |
| --- | --- | --- | --- | --- | --- | --- | --- | --- | --- | --- | --- | --- | --- | --- | --- | --- | --- | --- | --- | --- |
| COc1cc2c(c(OC)c1OC)-c1ccc(OC)c(=O)cc1[C@@H](NC(C)=O)CC2 [COLCHICINE] | Compound NOT metabolized | Compound NOT metabolized | Compound metabolized | Compound metabolized | Compound metabolized | Compound NOT metabolized | Compound NOT metabolized | Compound metabolized | Compound metabolized | Compound NOT metabolized | Compound NOT metabolized | Compound NOT metabolized | Compound metabolized | Compound NOT metabolized | Compound NOT metabolized | Compound NOT metabolized | Compound NOT metabolized | Compound metabolized | Compound NOT metabolized | Compound NOT metabolized |
| OC(Cn1cncn1)(Cn1cncn1)c1ccc(F)cc1F [FLUCONAZOLE] | Compound NOT metabolized | Compound NOT metabolized | Compound NOT metabolized | Compound metabolized | Compound NOT metabolized | Compound NOT metabolized | Compound NOT metabolized | Compound metabolized | Compound metabolized | Compound NOT metabolized | Compound metabolized | Compound NOT metabolized | Compound NOT metabolized | Compound NOT metabolized | Compound metabolized | Compound NOT metabolized | Compound NOT metabolized | Compound metabolized | Compound NOT metabolized | Compound NOT metabolized |
| CC(C(=O)O)c1ccc2c(c1)Cc1cccnc1O2 (stereo not given) [PRANOPROFEN] | Compound metabolized | Compound metabolized | Compound metabolized | Compound metabolized | Compound metabolized | Compound metabolized | Compound NOT metabolized | Compound metabolized | Compound metabolized | Compound metabolized | Compound metabolized | Compound metabolized | Compound metabolized | Compound metabolized | Compound NOT metabolized | Compound NOT metabolized | Compound metabolized | Compound metabolized | Compound NOT metabolized | Compound metabolized |
| CCOc1ccc(NC(C)=O)cc1 [PHENACETIN] | Compound NOT metabolized | Compound NOT metabolized | Compound NOT metabolized | Compound NOT metabolized | Compound NOT metabolized | Compound NOT metabolized | Compound NOT metabolized | Compound NOT metabolized | Compound NOT metabolized | Compound NOT metabolized | Compound NOT metabolized | Compound NOT metabolized | Compound NOT metabolized | Compound NOT metabolized | Compound NOT metabolized | Compound NOT metabolized | Compound NOT metabolized | Compound NOT metabolized | Compound NOT metabolized | Compound NOT metabolized |
| O=c1n(CCCN2CCN(c3cccc(Cl)c3)CC2)nc2ccccn12 [TRAZODONE] | Compound NOT metabolized | Compound NOT metabolized | Compound NOT metabolized | Compound metabolized | Compound NOT metabolized | Compound NOT metabolized | Compound NOT metabolized | Compound metabolized | Compound metabolized | Compound NOT metabolized | Compound NOT metabolized | Compound NOT metabolized | Compound NOT metabolized | Compound NOT metabolized | Compound metabolized | Compound NOT metabolized | Compound NOT metabolized | Compound metabolized | Compound NOT metabolized | Compound NOT metabolized |
| C=CCc1ccccc1OCC(O)CNC(C)C (stereo not given) [ALPRENOLOL] | Compound metabolized | Compound NOT metabolized | Compound NOT metabolized | Compound metabolized | Compound NOT metabolized | Compound NOT metabolized | Compound NOT metabolized | Compound metabolized | Compound metabolized | Compound NOT metabolized | Compound NOT metabolized | Compound NOT metabolized | Compound NOT metabolized | Compound NOT metabolized | Compound metabolized | Compound NOT metabolized | Compound NOT metabolized | Compound metabolized | Compound NOT metabolized | Compound NOT metabolized |
| COc1ccc2[nH]c([S+]([O-])Cc3ncc(C)c(OC)c3C)nc2n1 (stereo not given) [TENATOPRAZOLE] | Compound metabolized | Compound metabolized | Compound NOT metabolized | Compound NOT metabolized | Compound metabolized | Compound NOT metabolized | Compound metabolized | Compound NOT metabolized | Compound NOT metabolized | Compound metabolized | Compound NOT metabolized | Compound NOT metabolized | Compound metabolized | Compound metabolized | Compound NOT metabolized | Compound metabolized | Compound metabolized | Compound NOT metabolized | Compound metabolized | Compound metabolized |
